According to paper PMC11850817 (Scientific Reports, 2025):

Key:
[1] = test system: NIH3T3; assay: MTT assay, NIH3T3 non-cancer cell line; assay type: cell-based; conditions: Mus musculus, NIH3T3, 72 h, read-out: IC50 NIH3T3
[2] = target: PDGFRB (PDGFRβ) (Homo sapiens, UniProt P09619); assay: Radiometric kinase assay; assay type: biochemical; conditions: read-out: Kinase inhibition (%) PDGFRB (PDGFRβ)
[3] = target: ROS1 (Homo sapiens, UniProt P08922); assay: Radiometric kinase assay; assay type: biochemical; conditions: read-out: Kinase inhibition (%) ROS1
[4] = target: ERBB2 (Her-2) (Homo sapiens, UniProt P04626); assay: Radiometric kinase assay; assay type: biochemical; conditions: read-out: Kinase inhibition (%) ERBB2 (Her-2)
[5] = target: PIK3CA (Homo sapiens, UniProt P42336); assay: Radiometric kinase assay; assay type: biochemical; conditions: read-out: Kinase inhibition (%) PIK3CA
[6] = test system: HT-29; assay: MTT antiproliferative assay, HT-29; assay type: cell-based, human; conditions: Homo sapiens, HT-29, 72 h, read-out: IC50 HT-29
[7] = target: AURKA (Homo sapiens, UniProt O14965); assay: Radiometric kinase assay; assay type: biochemical; conditions: read-out: Kinase inhibition (%) AURKA
[8] = test system: AsPC-1 cells; assay: Cell cycle test, RNase/PI flow cytometry; assay type: cell-based, human; conditions: AsPC-1, 3, 10, 30, 50 µM, 48 h
[9] = test system: MCF-7; assay: MTT antiproliferative assay, MCF-7; assay type: cell-based, human; conditions: Homo sapiens, MCF7, 72 h, read-out: IC50 MCF-7
[10] = target: CDK6/cyclinD3 (Homo sapiens, UniProt Q00534); assay: Radiometric kinase assay; assay type: biochemical; conditions: read-out: Kinase inhibition (%) CDK6/cyclinD3
[11] = test system: AsPC-1 cells; assay: Apoptosis by Hoechst 33,258 staining; assay type: cell-based, human; conditions: AsPC-1, 10 and 30 µM, 48 h
[12] = target: CHEK1 (Homo sapiens, UniProt O14757); assay: Radiometric kinase assay; assay type: biochemical; conditions: read-out: Kinase inhibition (%) CHEK1
[13] = target: PDGFRA (PDGFRα) (Homo sapiens, UniProt P16234); assay: Radiometric kinase assay; assay type: biochemical; conditions: read-out: Kinase inhibition (%) PDGFRA (PDGFRα)
[14] = target: WEE1 (Homo sapiens, UniProt P30291); assay: Radiometric kinase assay; assay type: biochemical; conditions: read-out: Kinase inhibition (%) WEE1
[15] = target: EGFR (Homo sapiens, UniProt P00533); assay: Radiometric kinase assay; assay type: biochemical; conditions: read-out: Kinase inhibition (%) EGFR
[16] = target: NTRK3 (TrkC) (Homo sapiens, UniProt Q16288); assay: Radiometric kinase assay; assay type: biochemical; conditions: read-out: Kinase inhibition (%) NTRK3 (TrkC)
[17] = target: FGFR1 (Homo sapiens, UniProt P11362); assay: Radiometric kinase assay; assay type: biochemical; conditions: read-out: Kinase inhibition (%) FGFR1
[18] = target: KDR (VEGFR2) (Homo sapiens, UniProt P35968); assay: Radiometric kinase assay; assay type: biochemical; conditions: read-out: Kinase inhibition (%) KDR (VEGFR2)
[19] = target: MAPK1 (ERK2) (Homo sapiens, UniProt P28482); assay: Radiometric kinase assay; assay type: biochemical; conditions: read-out: Kinase inhibition (%) MAPK1 (ERK2)
[20] = target: MET (Homo sapiens, UniProt P08581); assay: Radiometric kinase assay; assay type: biochemical; conditions: read-out: Kinase inhibition (%) MET
[21] = target: AKT1 (Homo sapiens, UniProt P31749); assay: Radiometric kinase assay; assay type: biochemical; conditions: read-out: Kinase inhibition (%) AKT1
[22] = test system: Mia-Paca-2; assay: MTT antiproliferative assay, Mia-Paca-2; assay type: cell-based, human; conditions: Homo sapiens, MIA PaCa-2, 72 h, read-out: IC50 Mia-Paca-2
[23] = target: KIT (c-Kit) (Homo sapiens, UniProt P10721); assay: Radiometric kinase assay; assay type: biochemical; conditions: read-out: Kinase inhibition (%) KIT (c-Kit)
[24] = target: MAP2K1 (Homo sapiens, UniProt Q02750); assay: Radiometric kinase assay; assay type: biochemical; conditions: read-out: Kinase inhibition (%) MAP2K1
[25] = target: FLT4 (VEGFR3) (Homo sapiens, UniProt P35916); assay: Radiometric kinase assay; assay type: biochemical; conditions: read-out: Kinase inhibition (%) FLT4 (VEGFR3)
[26] = target: BRAF (Homo sapiens, UniProt P15056); assay: Radiometric kinase assay; assay type: biochemical; conditions: read-out: Kinase inhibition (%) BRAF
[27] = target: NTRK1 (TrkA) (Homo sapiens, UniProt P04629); assay: Radiometric kinase assay; assay type: biochemical; conditions: read-out: Kinase inhibition (%) NTRK1 (TrkA)
[28] = target: NTRK2 (TrkB) (Homo sapiens, UniProt Q16620); assay: Radiometric kinase assay; assay type: biochemical; conditions: read-out: Kinase inhibition (%) NTRK2 (TrkB)
[29] = test system: EBC-1, AsPC-1, Mia-Paca-2, HT-29, MCF-7 cancer cells; assay: MTT antiproliferative assay, cancer cell lines summarised; assay type: cell-based, human; conditions: Homo sapiens, read-out: IC50 range against tested cell lines

Sequence of MAPK1 (ERK2) (P28482 whole entry): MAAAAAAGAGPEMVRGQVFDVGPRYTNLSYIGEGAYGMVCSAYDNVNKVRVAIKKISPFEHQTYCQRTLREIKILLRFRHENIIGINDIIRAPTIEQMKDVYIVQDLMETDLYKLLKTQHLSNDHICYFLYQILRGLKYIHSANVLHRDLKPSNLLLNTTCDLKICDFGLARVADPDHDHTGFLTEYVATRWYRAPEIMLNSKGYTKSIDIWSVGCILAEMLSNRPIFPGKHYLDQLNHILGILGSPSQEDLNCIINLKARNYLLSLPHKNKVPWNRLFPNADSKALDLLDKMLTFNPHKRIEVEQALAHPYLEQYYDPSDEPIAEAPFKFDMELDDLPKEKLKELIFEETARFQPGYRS
Sequence of FLT4 (VEGFR3) (P35916 25-1363): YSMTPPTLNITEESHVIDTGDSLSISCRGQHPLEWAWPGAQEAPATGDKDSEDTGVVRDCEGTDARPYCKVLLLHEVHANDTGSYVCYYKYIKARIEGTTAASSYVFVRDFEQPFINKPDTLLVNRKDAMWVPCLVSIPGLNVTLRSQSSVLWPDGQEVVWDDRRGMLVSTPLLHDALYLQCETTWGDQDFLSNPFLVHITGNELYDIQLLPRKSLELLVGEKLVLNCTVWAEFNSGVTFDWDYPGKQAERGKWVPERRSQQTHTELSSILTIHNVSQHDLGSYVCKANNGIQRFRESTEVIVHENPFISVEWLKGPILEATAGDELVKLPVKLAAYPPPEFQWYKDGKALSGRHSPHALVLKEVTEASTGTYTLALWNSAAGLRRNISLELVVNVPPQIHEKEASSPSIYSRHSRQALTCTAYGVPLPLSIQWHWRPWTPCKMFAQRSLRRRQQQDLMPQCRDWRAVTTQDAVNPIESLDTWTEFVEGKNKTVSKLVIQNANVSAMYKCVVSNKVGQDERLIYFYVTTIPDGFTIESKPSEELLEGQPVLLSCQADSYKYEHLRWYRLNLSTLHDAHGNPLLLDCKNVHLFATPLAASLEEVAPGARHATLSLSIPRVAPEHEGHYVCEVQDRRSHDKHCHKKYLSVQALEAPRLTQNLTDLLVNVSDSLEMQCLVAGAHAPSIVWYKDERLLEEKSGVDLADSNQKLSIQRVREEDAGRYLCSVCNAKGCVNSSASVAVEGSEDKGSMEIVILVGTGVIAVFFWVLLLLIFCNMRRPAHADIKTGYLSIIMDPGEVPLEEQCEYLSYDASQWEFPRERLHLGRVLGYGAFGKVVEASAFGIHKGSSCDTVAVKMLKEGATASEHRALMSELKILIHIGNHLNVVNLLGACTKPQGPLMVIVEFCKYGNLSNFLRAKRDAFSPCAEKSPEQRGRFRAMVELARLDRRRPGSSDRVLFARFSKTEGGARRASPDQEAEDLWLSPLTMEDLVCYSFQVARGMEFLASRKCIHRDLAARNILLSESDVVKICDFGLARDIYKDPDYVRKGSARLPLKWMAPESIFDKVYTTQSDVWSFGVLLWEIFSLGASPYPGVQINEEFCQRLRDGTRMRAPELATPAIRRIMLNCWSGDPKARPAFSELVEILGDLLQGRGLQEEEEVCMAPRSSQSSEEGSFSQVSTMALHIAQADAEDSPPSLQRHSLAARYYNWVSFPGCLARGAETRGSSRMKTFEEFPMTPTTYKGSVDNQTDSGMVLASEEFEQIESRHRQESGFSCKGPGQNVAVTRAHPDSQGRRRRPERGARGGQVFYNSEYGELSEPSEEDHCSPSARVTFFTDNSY
Sequence of CHEK1 (O14757 whole entry): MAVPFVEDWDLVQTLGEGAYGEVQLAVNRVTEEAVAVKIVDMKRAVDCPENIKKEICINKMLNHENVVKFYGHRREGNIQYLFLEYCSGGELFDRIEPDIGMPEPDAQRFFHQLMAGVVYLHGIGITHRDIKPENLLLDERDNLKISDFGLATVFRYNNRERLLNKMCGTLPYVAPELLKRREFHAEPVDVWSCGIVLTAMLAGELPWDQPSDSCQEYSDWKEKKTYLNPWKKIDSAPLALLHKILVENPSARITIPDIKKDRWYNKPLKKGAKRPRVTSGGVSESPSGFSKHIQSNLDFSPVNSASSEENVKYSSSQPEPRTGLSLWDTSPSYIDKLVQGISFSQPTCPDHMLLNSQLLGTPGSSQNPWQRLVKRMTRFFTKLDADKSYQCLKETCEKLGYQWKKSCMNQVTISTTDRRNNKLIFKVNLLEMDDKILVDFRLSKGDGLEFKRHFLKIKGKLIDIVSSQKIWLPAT
Sequence of MAP2K1 (Q02750 whole entry): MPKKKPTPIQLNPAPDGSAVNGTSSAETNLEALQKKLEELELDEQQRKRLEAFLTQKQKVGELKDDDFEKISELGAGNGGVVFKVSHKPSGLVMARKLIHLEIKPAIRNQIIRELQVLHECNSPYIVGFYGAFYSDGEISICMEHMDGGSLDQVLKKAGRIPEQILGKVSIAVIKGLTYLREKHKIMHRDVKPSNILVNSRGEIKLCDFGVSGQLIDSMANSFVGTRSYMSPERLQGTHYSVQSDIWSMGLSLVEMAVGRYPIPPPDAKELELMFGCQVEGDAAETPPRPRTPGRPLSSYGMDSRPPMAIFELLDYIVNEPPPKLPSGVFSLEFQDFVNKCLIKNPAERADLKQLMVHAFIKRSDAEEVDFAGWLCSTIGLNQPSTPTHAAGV
Sequence of AKT1 (P31749 whole entry): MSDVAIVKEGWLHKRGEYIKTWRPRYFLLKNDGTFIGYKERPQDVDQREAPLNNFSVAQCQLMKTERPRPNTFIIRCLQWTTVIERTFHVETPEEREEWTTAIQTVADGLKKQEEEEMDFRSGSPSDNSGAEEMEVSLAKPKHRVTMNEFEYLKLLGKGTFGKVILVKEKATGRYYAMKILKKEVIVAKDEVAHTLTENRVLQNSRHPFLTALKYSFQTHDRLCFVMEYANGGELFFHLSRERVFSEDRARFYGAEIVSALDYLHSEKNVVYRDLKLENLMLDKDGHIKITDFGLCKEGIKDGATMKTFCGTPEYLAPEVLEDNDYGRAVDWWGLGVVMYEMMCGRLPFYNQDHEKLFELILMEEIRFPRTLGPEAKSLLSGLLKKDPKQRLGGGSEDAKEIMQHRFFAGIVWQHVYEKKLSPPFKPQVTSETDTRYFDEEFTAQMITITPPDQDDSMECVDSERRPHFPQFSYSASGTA
Sequence of MET (P08581 25-1390): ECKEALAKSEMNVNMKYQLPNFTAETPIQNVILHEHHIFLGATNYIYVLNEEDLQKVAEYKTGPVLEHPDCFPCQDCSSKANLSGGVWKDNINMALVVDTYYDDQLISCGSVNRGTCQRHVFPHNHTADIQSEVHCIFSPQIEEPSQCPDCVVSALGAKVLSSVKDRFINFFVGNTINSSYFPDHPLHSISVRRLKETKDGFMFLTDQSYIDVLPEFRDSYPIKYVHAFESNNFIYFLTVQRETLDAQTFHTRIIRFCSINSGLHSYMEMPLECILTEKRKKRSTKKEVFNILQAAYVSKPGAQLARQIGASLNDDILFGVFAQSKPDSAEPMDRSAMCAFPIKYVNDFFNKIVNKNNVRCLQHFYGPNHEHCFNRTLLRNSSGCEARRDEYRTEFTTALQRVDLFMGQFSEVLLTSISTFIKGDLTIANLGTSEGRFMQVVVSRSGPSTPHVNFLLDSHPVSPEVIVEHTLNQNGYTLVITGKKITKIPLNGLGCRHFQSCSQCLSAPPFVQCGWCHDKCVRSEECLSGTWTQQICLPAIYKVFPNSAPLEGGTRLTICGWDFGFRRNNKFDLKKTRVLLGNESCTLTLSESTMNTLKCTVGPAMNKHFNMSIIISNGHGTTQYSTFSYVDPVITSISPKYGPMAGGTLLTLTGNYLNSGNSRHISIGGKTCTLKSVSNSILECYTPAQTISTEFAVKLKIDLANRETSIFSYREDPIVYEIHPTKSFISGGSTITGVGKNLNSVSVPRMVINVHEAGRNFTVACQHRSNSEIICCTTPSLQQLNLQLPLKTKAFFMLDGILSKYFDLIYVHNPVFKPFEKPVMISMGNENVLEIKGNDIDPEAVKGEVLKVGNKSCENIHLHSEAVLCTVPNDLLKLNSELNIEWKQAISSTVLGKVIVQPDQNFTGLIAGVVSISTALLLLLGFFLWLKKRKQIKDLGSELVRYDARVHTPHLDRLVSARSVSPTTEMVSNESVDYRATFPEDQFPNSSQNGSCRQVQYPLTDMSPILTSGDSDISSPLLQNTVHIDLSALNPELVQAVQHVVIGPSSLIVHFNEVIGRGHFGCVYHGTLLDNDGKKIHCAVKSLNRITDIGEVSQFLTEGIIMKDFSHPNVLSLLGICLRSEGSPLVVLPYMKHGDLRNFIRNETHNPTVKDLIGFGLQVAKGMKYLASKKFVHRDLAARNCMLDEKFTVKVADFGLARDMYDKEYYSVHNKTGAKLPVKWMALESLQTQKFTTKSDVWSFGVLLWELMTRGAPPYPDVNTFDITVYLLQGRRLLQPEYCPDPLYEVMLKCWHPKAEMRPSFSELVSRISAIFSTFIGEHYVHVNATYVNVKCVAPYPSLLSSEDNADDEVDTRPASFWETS
Sequence of WEE1 (P30291 whole entry): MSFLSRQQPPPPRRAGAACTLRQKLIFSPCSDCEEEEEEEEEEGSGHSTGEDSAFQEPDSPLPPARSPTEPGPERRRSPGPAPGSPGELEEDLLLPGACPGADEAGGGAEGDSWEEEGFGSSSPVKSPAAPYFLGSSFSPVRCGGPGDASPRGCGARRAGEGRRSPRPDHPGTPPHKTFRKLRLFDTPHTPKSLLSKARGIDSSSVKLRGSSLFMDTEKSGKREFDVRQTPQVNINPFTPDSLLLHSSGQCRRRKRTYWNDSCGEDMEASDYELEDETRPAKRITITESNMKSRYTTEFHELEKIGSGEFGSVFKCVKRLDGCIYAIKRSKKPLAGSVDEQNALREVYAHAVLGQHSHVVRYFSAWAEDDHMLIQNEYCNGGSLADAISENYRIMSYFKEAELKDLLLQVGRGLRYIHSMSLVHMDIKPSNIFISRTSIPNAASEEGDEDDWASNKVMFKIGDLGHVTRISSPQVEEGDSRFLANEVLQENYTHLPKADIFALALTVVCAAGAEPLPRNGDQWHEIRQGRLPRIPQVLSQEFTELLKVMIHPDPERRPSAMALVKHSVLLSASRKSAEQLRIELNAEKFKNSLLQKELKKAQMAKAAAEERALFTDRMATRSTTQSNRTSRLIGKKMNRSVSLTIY

inhibition at 10 µM [2]: 14%
inhibition at 10 µM [3]: -2%
inhibition at 10 µM [4]: 2%
inhibition at 10 µM [5]: 3%
IC50 [6]: 0.6 ± 0.2 µM
inhibition at 10 µM [7]: 5%
IC50 [9]: 7.1 ± 4.3 µM
inhibition at 10 µM [10]: 3%
inhibition at 10 µM [12]: -12%
inhibition at 10 µM [13]: 43%
inhibition at 10 µM [14]: -4%
inhibition at 10 µM [15]: -3%
inhibition at 10 µM [16]: 12%
inhibition at 10 µM [17]: -5%
inhibition at 10 µM [18]: -9%
inhibition at 10 µM [19]: 6%
inhibition at 10 µM [20]: -14%
inhibition at 10 µM [21]: 15%
IC50 [22]: 0.8 ± 0.1 µM
inhibition at 10 µM [23]: -8%
inhibition at 10 µM [24]: 4%
inhibition at 10 µM [25]: 30%
inhibition at 10 µM [26]: -7%
inhibition at 10 µM [27]: 2%
inhibition at 10 µM [28]: 6%
IC50 [29]: 0.3 to 7.1 µM
Structure (SMILES): O=C1C=C(Nc2ccc(OCc3cn(Cc4ccc(Cl)c(Cl)c4)nn3)cc2)C(=O)c2ccccc21 [Compound 4e, 2-((4-((1-(3,4-Dichlorobenzyl)−1H-1,2,3-triazol-4-yl)methoxy)phenyl)amino) naphthalene-1,4-dione]
IC50 [1]: 6.5 ± 1.2 µM
Effect on cell cycle distribution (S and G2/M phases) [8]: dose-dependently increased the number of cells in the S phase and simultaneously reduced the cells in G2/M phase
Effect on sub-G1 and G0/G1 phases [8]: increase in cells in sub-G1 phase, while reducing G0/G1 cells
Apoptosis induction (nuclear morphology) [11]: characteristic features of apoptosis including densely packed chromatin within the nucleus as well as nuclear fragmentation
